This is an account of results in patent US8399681B2, “Substituted aminothiazolone indazoles as estrogen related receptor-alpha modulators” (Janssen Pharmaceutica NV, priority 2009, dated 2013).

The target of the assay is T1, ERR1 (also known as ERR-α or ERR-1) (Homo sapiens, UniProt P11474).
T1 sequence (P11474 193-421 limits assumed): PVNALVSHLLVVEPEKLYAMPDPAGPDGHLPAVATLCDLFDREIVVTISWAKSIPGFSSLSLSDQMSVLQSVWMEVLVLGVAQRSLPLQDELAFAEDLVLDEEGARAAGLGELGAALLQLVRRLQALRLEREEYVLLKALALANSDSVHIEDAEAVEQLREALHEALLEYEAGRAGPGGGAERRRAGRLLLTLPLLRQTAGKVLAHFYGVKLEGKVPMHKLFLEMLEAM
Put plainly: TR-FRET assay (disruption of co-activator peptide binding). It counts as biochemical. The following applies: 6His-tagged ERR1 LBD, GST-hSRC2 co-activator polypeptide; average of 3 independent experiments. Put shortly:
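Compound-induced loss of co-activator recruitment, read by time-resolved FRET (excitation 340 nm; 615 and 665 nm emission) after 4-18 h at 25 °C. Reagents: 6 nM ERR1LBD, 6 nM GST-SRC-2, 30 nM Eu cryptate, 7.5 nM XL665, pH 8 Tris buffer. Values: hyperbolic fits averaged over 3 independent runs.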
(In general: TR-FRET usually uses a lanthanide donor and a delayed reading to cut background.)

In general, EC50 refers to the midpoint of the concentration-response curve. Higher therefore signals a need for much substance. Turning to `COC1CN(C2=NC(=O)/C(=C/c3ccc4c(cnn4Cc4ccc(Cl)cc4C(F)(F)F)c3)S2)C1` [Example 113, 5-[1-(4-Chloro-2-trifluoromethyl-benzyl)-1H-indazol-5-ylmethylene]-2-(3-methoxy-azetidin-1-yl)-thiazol-4-one], the EC50 amounted to 14 nM.
To `O=C1CCN(C2=NC(=O)/C(=C/c3ccc4c(cnn4Cc4ccc(Cl)cc4C(F)(F)F)c3)S2)CCN1` [Example 114, 1-{5-[1-(4-Chloro-2-trifluoromethyl-benzyl)-1H-indazol-5-ylmethylene]-4-oxo-4,5-dihydro-thiazol-2-yl}-[1,4]diazepan-5-one] belongs 13 nM; to `O=C(O)CN1CCN(C2=NC(=O)/C(=C/c3ccc4c(cnn4Cc4ccc(Cl)cc4C(F)(F)F)c3)S2)CC1` [Example 117], 8.3 nM; to `O=C1CCN(C2=NC(=O)/C(=C/c3ccc4c(cnn4Cc4ccc(C(F)(F)F)cc4C(F)(F)F)c3)S2)CCN1` [Example 118, 1-{5-[1-(2,4-Bis-trifluoromethyl-benzyl)-1H-indazol-5-ylmethylene]-4-oxo-4,5-dihydro-thiazol-2-yl}-[1,4]diazepan-5-one], 7.3 nM.
The figure for `O=C(O)CN1CCN(C2=NC(=O)/C(=C/c3ccc4c(cnn4Cc4ccc(C(F)(F)F)cc4C(F)(F)F)c3)S2)CC1` [Example 119] is 14 nM; for `CS(=O)(=O)NC1CCN(C2=NC(=O)/C(=C/c3ccc4c(cnn4Cc4ccc(C(F)(F)F)cc4C(F)(F)F)c3)S2)CC1` [Example 120, N-(1-{5-[1-(2,4-Bis-trifluoromethyl-benzyl)-1H-indazol-5-ylmethylene]-4-oxo-4,5-dihydro-thiazol-2-yl}-piperidin-4-yl)-methanesulfonamide] it is 27 nM; for `O=C1N=C(N2CCN(C3CC3)CC2)S/C1=C\c1ccc2c(cnn2Cc2ccc(Cl)cc2C(F)(F)F)c1` [Example 121, 5-[1-(4-Chloro-2-trifluoromethyl-benzyl)-1H-indazol-5-ylmethylene]-2-(4-cyclopropyl-piperazin-1-yl)-thiazol-4-one] it is 25.3 nM.
The figure for `O=C1N=C(N2CCN(C3CC3)CC2)S/C1=C\c1ccc2c(cnn2Cc2ccc(C(F)(F)F)cc2C(F)(F)F)c1` [Example 122, 5-[1-(2,4-Bis-trifluoromethyl-benzyl)-1H-indazol-5-ylmethylene]-2-(4-cyclopropyl-piperazin-1-yl)-thiazol-4-one] is 41.8 nM; for `CC[C@H]1CN(C2=NC(=O)/C(=C/c3ccc4c(cnn4Cc4ccc(C(F)(F)F)cc4C(F)(F)F)c3)S2)CCN1` [Example 124, 5-[1-(2,4-Bis-trifluoromethyl-benzyl)-1H-indazol-5-ylmethylene]-2-(3-ethyl-piperazin-1-yl)-thiazol-4-one] it is 9 nM; for `O=C1N=C(N2CCCO2)S/C1=C\c1ccc2c(cnn2Cc2ccc(Cl)cc2C(F)(F)F)c1` [Example 126, 5-[1-(4-Chloro-2-trifluoromethyl-benzyl)-1H-indazol-5-ylmethylene]-2-isoxazolidin-2-yl-thiazol-4-one] it is 24 nM.
In turn, `CCOC(=O)CN1CCN(C2=NC(=O)/C(=C/c3ccc4c(cnn4Cc4ccc(Cl)cc4C(F)(F)F)c3)S2)CC1` [Example 127] yielded an EC50 of 29 nM.
Compound `CCOC(=O)N1CCCN(C2=NC(=O)/C(=C/c3ccc4c(cnn4Cc4ccc(Cl)cc4C(F)(F)F)c3)S2)CC1` [Example 128, 4-{5-[1-(4-Chloro-2-trifluoromethyl-benzyl)-1H-indazol-5-ylmethylene]-4-oxo-4,5-dihydro-thiazol-2-yl}-[1,4]diazepane-1-carboxylic acid ethyl ester] came in with an EC50 of 32 nM.
To `CCOC(=O)N1CCCN(C2=NC(=O)/C(=C/c3ccc4c(cnn4Cc4ccc(C(F)(F)F)cc4C(F)(F)F)c3)S2)CC1` [Example 129, 4-{5-[1-(2,4-Bis-trifluoromethyl-benzyl)-1H-indazol-5-ylmethylene]-4-oxo-4,5-dihydro-thiazol-2-yl}-[1,4]diazepane-1-carboxylic acid ethyl ester] belongs 28 nM.
To `COC(=O)COC1CCN(C2=NC(=O)/C(=C/c3ccc4c(cnn4Cc4ccc(Cl)cc4C(F)(F)F)c3)S2)CC1` [Example 130] belongs 32 nM; to `O=C(O)COC1CCN(C2=NC(=O)/C(=C/c3ccc4c(cnn4Cc4ccc(Cl)cc4C(F)(F)F)c3)S2)CC1` [Example 131], 7.8 nM.
The figure for `O=C1N=C(N2CCN[C@@H](CO)C2)S/C1=C\c1ccc2c(cnn2Cc2ccc(Cl)cc2C(F)(F)F)c1` [Example 132, 5-[1-(4-Chloro-2-trifluoromethyl-benzyl)-1H-indazol-5-ylmethylene]-2-(3-(R)-hydroxymethyl-piperazin-1-yl)-thiazol-4-one] is 10.7 nM; for `O=C1N=C(N2CCCN(CCF)CC2)S/C1=C\c1ccc2c(cnn2Cc2ccc(Cl)cc2C(F)(F)F)c1` [Example 133, 5-[1-(4-Chloro-2-trifluoromethyl-benzyl)-1H-indazol-5-ylmethylene]-2-[4-(2-fluoro-ethyl)-[1,4]diazepan-1-yl]-thiazol-4-one] it is 4.1 nM; for `CS(=O)(=O)N1CCCN(C2=NC(=O)/C(=C/c3ccc4c(cnn4Cc4ccc(Cl)cc4C(F)(F)F)c3)S2)CC1` [Example 134, 5-[1-(4-Chloro-2-trifluoromethyl-benzyl)-1H-indazol-5-ylmethylene]-2-(4-methanesulfonyl-[1,4]diazepan-1-yl)-thiazol-4-one] it is 5 nM.
Regarding `O=C1N=C(N2CCCN(CC(F)(F)F)CC2)S/C1=C\c1ccc2c(cnn2Cc2ccc(Cl)cc2C(F)(F)F)c1` [Example 135, 5-[1-(4-Chloro-2-trifluoromethyl-benzyl)-1H-indazol-5-ylmethylene]-2-[4-(2,2,2-trifluoro-ethyl)-[1,4]diazepan-1-yl]-thiazol-4-one], the EC50 amounted to 52 nM.
The figure for `O=C1N=C(N2CCCN(C(=O)OCC(F)(F)F)CC2)S/C1=C\c1ccc2c(cnn2Cc2ccc(Cl)cc2C(F)(F)F)c1` [Example 136, 4-{5-[1-(4-Chloro-2-trifluoromethyl-benzyl)-1H-indazol-5-ylmethylene]-4-oxo-4,5-dihydro-thiazol-2-yl}[1,4]diazepane-1-carboxylic acid 2,2,2-trifluoro-ethyl ester] is 34 nM; for `O=C1N=C(N2CCC(C(=O)O)C2)S/C1=C\c1ccc2c(cnn2Cc2ccc(Cl)cc2C(F)(F)F)c1` (centres unmarked) [Example 137, 1-{5-[1-(4-Chloro-2-trifluoromethyl-benzyl)-1H-indazol-5-ylmethylene]-4-oxo-4,5-dihydro-thiazol-2-yl}-pyrrolidine-3-carboxylic acid] it is 14 nM.
To `NCC(=O)N1CCCN(C2=NC(=O)/C(=C/c3ccc4c(cnn4Cc4ccc(Cl)cc4C(F)(F)F)c3)S2)CC1` [Example 138, 2-[4-(2-Amino-acetyl)-[1,4]diazepan-1-yl]-5-[1-(4-chloro-2-trifluoromethyl-benzyl)-1H-indazol-5-ylmethylene]-thiazol-4-one] belongs 19 nM; to `CC(C)(C)OC[C@@H]1CN(C2=NC(=O)/C(=C/c3ccc4c(cnn4Cc4ccc(C(F)(F)F)cc4C(F)(F)F)c3)S2)CCO1` [Example 143, 5-({1-[2,4-Bis(trifluoromethyl)benzyl]-1H-indazol-5-yl}methylidene)-2-[2(S)-(tert-butoxymethyl)morpholin-4-yl]-1,3-thiazol-4(5H)-one], 56 nM; to `O=C1N=C(N2CC3COC(=O)C3C2)S/C1=C\c1ccc2c(cnn2Cc2ccc(Cl)cc2C(F)(F)F)c1` (centres unmarked) [Example 144, 5-{5-[1-(4-Chloro-2-trifluoromethyl-benzyl)-1H-indazol-5-ylmethylene]-4-oxo-4,5-dihydro-thiazol-2-yl}-hexahydro-furo[3,4-c]pyrrol-1-one], 14 nM.
To `O=C(O)CC1CCN(C2=NC(=O)/C(=C/c3ccc4c(cnn4Cc4ccc(Cl)cc4C(F)(F)F)c3)S2)C1` (centres unmarked) [Example 145, (1-{5-[1-(4-Chloro-2-trifluoromethyl-benzyl)-1H-indazol-5-ylmethylene]-4-oxo-4,5-dihydro-thiazol-2-yl}-pyrrolidin-3-yl)-acetic acid] belongs 21 nM.
In turn, `O=C1N=C(N2CCS(=O)(=O)CC2)S/C1=C\c1ccc2c(cnn2Cc2ccc(Cl)cc2C(F)(F)F)c1` [Example 146, 5-[1-(4-Chloro-2-trifluoromethyl-benzyl)-1H-indazol-5-ylmethylene]-2-(1,1-dioxidothiomorpholin-4-yl)-thiazol-4-one] gave an EC50 of 14 nM.
Take `Cc1nnc(C)n1C1CCN(C2=NC(=O)/C(=C/c3ccc4c(cnn4Cc4ccc(Cl)cc4C(F)(F)F)c3)S2)CC1` [Example 147, 5-[1-(4-Chloro-2-trifluoromethyl-benzyl)-1H-indazol-5-ylmethylene]-2-[4-(3,5-dimethyl-[1,2,4]triazol-4-yl)-piperidin-1-yl]-thiazol-4-one]: the half-maximal effective concentration (EC50) came to 11 nM.
To `O=C1N=C(N2CCSCC2)S/C1=C\c1ccc2c(cnn2Cc2ccc(Cl)cc2C(F)(F)F)c1` [Example 148, 5-[1-(4-Chloro-2-trifluoromethyl-benzyl)-1H-indazol-5-ylmethylene]-2-thiomorpholin-4-yl-thiazol-4-one] belongs 33 nM.
To `O=C1N=C(N2CC(F)C2)S/C1=C\c1ccc2c(cnn2Cc2ccc(Cl)cc2C(F)(F)F)c1` [Example 149, 5-[1-(4-Chloro-2-trifluoromethyl-benzyl)-1H-indazol-5-ylmethylene]-2-(3-fluoro-azetidin-1-yl)-thiazol-4-one] belongs 55 nM.
